Reference: PubChem BioAssay (NCI)
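Where inhibition never reached the appropriate level, the endpoint shown equals the highest concentration tested. Otherwise, values were interpolated linearly from a five-concentration, 48-hour dose response in 96-well plates. At the GI50, growth is halved. The concentration for full growth arrest is given as TGI.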

Key:
Assay in all cases: NCI anticancer screen, dose series, 48 h
HOP-92 NSCLC = tested on: HOP-92 NSCLC
OVCAR-4 ovarian = tested on: OVCAR-4 ovarian
HCT-116 colon = tested on: HCT-116 colon
NCI-H460 lung = tested on: NCI-H460 lung
TK-10 renal = tested on: TK-10 renal
HCC-2998 colon = tested on: HCC-2998 colon
HOP-62 NSCLC = tested on: HOP-62 NSCLC
UACC-257 melanoma = tested on: UACC-257 melanoma
RXF 393 renal = tested on: RXF 393 renal
RPMI-8226 leukemia = tested on: RPMI-8226 leukemia
OVCAR-5 ovarian = tested on: OVCAR-5 ovarian
COLO 205 colon = tested on: COLO 205 colon
EKVX NSCLC = tested on: EKVX NSCLC
MALME-3M melanoma = tested on: MALME-3M melanoma
MOLT-4 leukemia = tested on: MOLT-4 leukemia
MDA-MB-231 breast = tested on: MDA-MB-231 breast
M14 melanoma = tested on: M14 melanoma
A498 renal = tested on: A498 renal
SW-620 colon = tested on: SW-620 colon
SK-MEL-5 melanoma = tested on: SK-MEL-5 melanoma
U251 CNS = tested on: U251 CNS
SF-268 CNS = tested on: SF-268 CNS
ACHN renal = tested on: ACHN renal
OVCAR-8 ovarian = tested on: OVCAR-8 ovarian
SK-OV-3 ovarian = tested on: SK-OV-3 ovarian
SF-295 CNS = tested on: SF-295 CNS
DU-145 prostate = tested on: DU-145 prostate
UO-31 renal = tested on: UO-31 renal
SNB-75 CNS = tested on: SNB-75 CNS
MCF7 breast = tested on: MCF7 breast
CCRF-CEM leukemia = tested on: CCRF-CEM leukemia
T-47D breast = tested on: T-47D breast
SF-539 CNS = tested on: SF-539 CNS
K-562 leukemia = tested on: K-562 leukemia
NCI-H226 lung = tested on: NCI-H226 lung
786-0 renal = tested on: 786-0 renal
KM12 colon = tested on: KM12 colon
NCI-H23 lung = tested on: NCI-H23 lung
MDA-MB-435 = tested on: MDA-MB-435
HT29 colon = tested on: HT29 colon
IGROV1 ovarian = tested on: IGROV1 ovarian
HL-60(TB) leukemia = tested on: HL-60(TB) leukemia
SN12C renal = tested on: SN12C renal
HCT-15 colon = tested on: HCT-15 colon
HS 578T breast = tested on: HS 578T breast
NCI/ADR-RES ovarian = tested on: NCI/ADR-RES ovarian
UACC-62 melanoma = tested on: UACC-62 melanoma
A549 NSCLC = tested on: A549 NSCLC
SR leukemia = tested on: SR leukemia
SK-MEL-28 melanoma = tested on: SK-MEL-28 melanoma
SNB-19 CNS = tested on: SNB-19 CNS
BT-549 breast = tested on: BT-549 breast
LOX IMVI melanoma = tested on: LOX IMVI melanoma
SK-MEL-2 melanoma = tested on: SK-MEL-2 melanoma
OVCAR-3 ovarian = tested on: OVCAR-3 ovarian
PC-3 prostate = tested on: PC-3 prostate
NCI-H522 lung = tested on: NCI-H522 lung
CAKI-1 renal = tested on: CAKI-1 renal

With `Cc1cccc(NC2=NCCO2)c1Cl` the TGI (HOP-92 NSCLC) was over 100 µM, the TGI (OVCAR-4 ovarian) was over 100 µM and the TGI (HCT-116 colon) was over 100 µM. It also gave a TGI (NCI-H460 lung) of over 100 µM, a TGI (TK-10 renal) of over 100 µM and a TGI (HCC-2998 colon) of over 100 µM. The TGI (HOP-62 NSCLC) was over 100 µM, the TGI (UACC-257 melanoma) was over 100 µM and the TGI (RXF 393 renal) was over 100 µM. The TGI (RPMI-8226 leukemia) was over 100 µM, the TGI (OVCAR-5 ovarian) was over 100 µM and the TGI (COLO 205 colon) was over 100 µM. It also gave a TGI (EKVX NSCLC) of over 100 µM, a TGI (MALME-3M melanoma) of over 100 µM and a TGI (MOLT-4 leukemia) of over 100 µM. The TGI (MDA-MB-231 breast) was over 100 µM, the TGI (M14 melanoma) was over 100 µM and the TGI (A498 renal) was over 100 µM. It also gave a TGI (SW-620 colon) of over 100 µM, a TGI (SK-MEL-5 melanoma) of over 100 µM and a TGI (U251 CNS) of over 100 µM. The TGI (SF-268 CNS) was over 100 µM, the TGI (ACHN renal) was over 100 µM and the TGI (OVCAR-8 ovarian) was over 100 µM. It also gave a TGI (SK-OV-3 ovarian) of over 100 µM, a TGI (SF-295 CNS) of over 100 µM and a TGI (DU-145 prostate) of over 100 µM. For the same molecule, the TGI (UO-31 renal) was over 100 µM, the TGI (SNB-75 CNS) was over 100 µM and the TGI (MCF7 breast) was over 100 µM. The TGI (CCRF-CEM leukemia) was over 100 µM, the TGI (T-47D breast) was over 100 µM and the TGI (SF-539 CNS) was over 100 µM. For the same molecule, the TGI (K-562 leukemia) was over 100 µM, the TGI (NCI-H226 lung) was over 100 µM and the TGI (786-0 renal) was over 100 µM. It also gave a TGI (KM12 colon) of over 100 µM, a TGI (NCI-H23 lung) of over 100 µM and a TGI (MDA-MB-435) of over 100 µM. The TGI (HT29 colon) was over 100 µM, the TGI (IGROV1 ovarian) was over 100 µM and the TGI (HL-60(TB) leukemia) was over 100 µM. For the same molecule, the TGI (SN12C renal) was over 100 µM, the TGI (HCT-15 colon) was over 100 µM and the TGI (HS 578T breast) was over 100 µM. For the same molecule, the TGI (NCI/ADR-RES ovarian) was over 100 µM, the TGI (UACC-62 melanoma) was over 100 µM and the TGI (A549 NSCLC) was over 100 µM. The TGI (SR leukemia) was over 100 µM, the TGI (SK-MEL-28 melanoma) was over 100 µM and the TGI (SNB-19 CNS) was over 100 µM.
Work on `Brc1cccc[n+]1-c1ccc2cc(-[n+]3ccccc3Br)ccc2c1` yielded a TGI (HCT-116 colon) of over 100 µM, a TGI (NCI-H460 lung) of over 100 µM and a TGI (TK-10 renal) of 37.6 µM. It also gave a TGI (HCC-2998 colon) of over 100 µM, a TGI (HOP-62 NSCLC) of 75.6 µM and a TGI (UACC-257 melanoma) of over 100 µM. For the same molecule, the TGI (BT-549 breast) was over 100 µM, the TGI (LOX IMVI melanoma) was 34.7 µM and the TGI (RXF 393 renal) was 87.6 µM. It also gave a TGI (RPMI-8226 leukemia) of 63.8 µM, a TGI (OVCAR-5 ovarian) of over 100 µM and a TGI (COLO 205 colon) of over 100 µM. The TGI (EKVX NSCLC) was over 100 µM, the TGI (MALME-3M melanoma) was 72.7 µM and the TGI (MDA-MB-231 breast) was 85.6 µM. It also gave a TGI (M14 melanoma) of over 100 µM, a TGI (A498 renal) of over 100 µM and a TGI (SW-620 colon) of over 100 µM. For the same molecule, the TGI (SK-MEL-5 melanoma) was over 100 µM, the TGI (U251 CNS) was 29.8 µM and the TGI (SF-268 CNS) was 90.4 µM. For the same molecule, the TGI (ACHN renal) was 37.2 µM, the TGI (OVCAR-8 ovarian) was over 100 µM and the TGI (SK-MEL-2 melanoma) was over 100 µM. The TGI (SK-OV-3 ovarian) was 55.6 µM, the TGI (SF-295 CNS) was over 100 µM and the TGI (DU-145 prostate) was 35.5 µM. It also gave a TGI (UO-31 renal) of 38.5 µM, a TGI (MCF7 breast) of over 100 µM and a TGI (CCRF-CEM leukemia) of over 100 µM. The TGI (T-47D breast) was 58.4 µM, the TGI (SF-539 CNS) was 40.1 µM and the TGI (OVCAR-3 ovarian) was 46.4 µM. The TGI (K-562 leukemia) was over 100 µM, the TGI (NCI-H226 lung) was over 100 µM and the TGI (786-0 renal) was 69 µM. For the same molecule, the TGI (KM12 colon) was 40 µM, the TGI (PC-3 prostate) was over 100 µM and the TGI (NCI-H23 lung) was over 100 µM. For the same molecule, the TGI (MDA-MB-435) was over 100 µM, the TGI (HT29 colon) was over 100 µM and the TGI (IGROV1 ovarian) was 28 µM. The TGI (HL-60(TB) leukemia) was over 100 µM, the TGI (SN12C renal) was over 100 µM and the TGI (HCT-15 colon) was over 100 µM. It also gave a TGI (HS 578T breast) of over 100 µM, a TGI (NCI/ADR-RES ovarian) of over 100 µM and a TGI (NCI-H522 lung) of over 100 µM. The TGI (UACC-62 melanoma) was over 100 µM, the TGI (A549 NSCLC) was over 100 µM and the TGI (CAKI-1 renal) was over 100 µM. It also gave a TGI (SK-MEL-28 melanoma) of over 100 µM and a TGI (SNB-19 CNS) of over 100 µM.
Work on `N=C(N)c1ccc(-c2ccc(-c3ccc(F)cc3)s2)s1` yielded a GI50 (TK-10 renal) of 1.72 µM, a TGI (TK-10 renal) of 3.14 µM and a GI50 (UACC-257 melanoma) of 2.19 µM. For the same molecule, the TGI (UACC-257 melanoma) was 4.15 µM, the GI50 (RXF 393 renal) was 1.75 µM and the TGI (RXF 393 renal) was 3.34 µM. It also gave a GI50 (M14 melanoma) of 1.89 µM, a TGI (M14 melanoma) of 3.4 µM and a GI50 (A498 renal) of 1.95 µM. The TGI (A498 renal) was 4.65 µM, the GI50 (SK-MEL-5 melanoma) was 1.81 µM and the TGI (SK-MEL-5 melanoma) was 3.2 µM. It also gave a GI50 (SK-OV-3 ovarian) of 1.8 µM, a TGI (SK-OV-3 ovarian) of 3.57 µM and a GI50 (DU-145 prostate) of 1.72 µM. For the same molecule, the TGI (DU-145 prostate) was 3.19 µM, the GI50 (NCI-H226 lung) was 14.2 µM and the TGI (NCI-H226 lung) was 54.2 µM. For the same molecule, the GI50 (MDA-MB-435) was 1.59 µM, the TGI (MDA-MB-435) was 2.93 µM and the GI50 (HS 578T breast) was 2.19 µM. The TGI (HS 578T breast) was 4.85 µM, the GI50 (CAKI-1 renal) was 1.68 µM and the TGI (CAKI-1 renal) was 3.08 µM.
